Experimental data taken from ChEMBL document CHEMBL1147590, “Synthesis and antitumor activity of s-tetrazine derivatives” (Bioorg Med Chem Lett, 2004).

What was measured:
A549 [1] = assay: In vitro rate of inhibition of A-549 tumor cell growth at 10E-5 mol/L; format: functional, Homo sapiens; conditions: at 10 µM
P388 [2] = assay: In vitro rate of inhibition of P388 tumor cell growth at 10E-6 mol/L; format: functional, Mus musculus; conditions: at 1 µM
P388 [3] = assay: In vitro rate of inhibition of P388 tumor cell growth at 10E-7 mol/L; format: functional, Mus musculus; conditions: at 0.1 µM
A549 [4] = assay: In vitro rate of inhibition of A-549 tumor cell growth at 10E-7 mol/L; format: functional, Homo sapiens; conditions: at 0.1 µM
P388 [5] = assay: In vitro rate of inhibition of P388 tumor cell growth at 10E-4 mol/L; format: functional, Mus musculus; conditions: at 100 µM
A549 [6] = assay: In vitro rate of inhibition of A-549 tumor cell growth at 10E-8 mol/L; format: functional, Homo sapiens; conditions: at 0.01 µM
A549 [7] = assay: In vitro rate of inhibition of A-549 tumor cell growth at 10E-6 mol/L; format: functional, Homo sapiens; conditions: at 1 µM
P388 [8] = assay: In vitro rate of inhibition of P388 tumor cell growth at 10E-8 mol/L; format: functional, Mus musculus; conditions: at 0.01 µM
A549 [9] = assay: In vitro rate of inhibition of A-549 tumor cell growth at 10E-4 mol/L; format: functional, Homo sapiens; conditions: at 100 µM
P388 [10] = assay: In vitro rate of inhibition of P388 tumor cell growth at 10E-5 mol/L; format: functional, Mus musculus; conditions: at 10 µM

| SMILES | Rate of inhibition (A549 [1]) | Rate of inhibition (P388 [2]) | Rate of inhibition (P388 [3]) | Rate of inhibition (A549 [4]) | Rate of inhibition (P388 [5]) | Rate of inhibition (A549 [6]) | Rate of inhibition (A549 [7]) | Rate of inhibition (P388 [8]) | Rate of inhibition (A549 [9]) | Rate of inhibition (P388 [10]) |
| --- | --- | --- | --- | --- | --- | --- | --- | --- | --- | --- |
| CC1=NN(C(=O)OCCC(C)C)C(C)N=N1 (stereo not given) | 0% | 13.6% | 0.8% | 0% | 28.8% | 0% | 0% | 0% | 0% | 17.8% |
| COC(=O)N1C(c2ccccc2)=NN=C(c2ccccc2)N1C(=O)OC | 0% | 11.6% | 5.2% | 0% | 50.5% | 0% | 0% | 3.3% | 35.5% | 14.6% |
| CCOC(=O)N1C(c2ccccc2)=NN=C(c2ccccc2)N1C(=O)OCC | 10.8% | 7% | 4.9% | 0% | 93.9% | 0% | 0% | 2.8% | 95.3% | 35.6% |
| CC1=NN(C(=O)NCc2ccccc2)C(C)=NN1C(=O)NCc1ccccc1 | 82.3% | 50.3% | 22% | 32% | 92.8% | 14.1% | 81.8% | 19.6% | 64.4% | 57.5% |
| CC(C)C(=O)N1N=C(c2ccccc2)NN=C1c1ccccc1 | 46.6% | 52% | 24.9% | 29.6% | 82.5% | 29.5% | 38.7% | 46.9% | 83.8% | 61.1% |
| Clc1ccc(-c2nnc(-c3ccc(Cl)cc3)nn2)cc1 | 0% | 29% | 19.4% | 0% | 52.3% | 0% | 0% | 16.1% | 0% | 35.1% |
| CCCCCCCCCCCCC/C=C/[C@@H](O)[C@H](CO)NC(C)=O | 9.2% | 3.1% | 3.1% | 7.7% | 73.4% | 12.3% | 6.2% | 0% | 24.6% | 4.7% |
| FC(F)(F)c1ccc(-c2nnc(-c3ccc(C(F)(F)F)cc3)nn2)cc1 | 2.5% | 33% | 19.5% | 0% | 51.5% | 0% | 0% | 9.7% | 40.2% | 44.4% |
| CC1=NN(C(=O)Nc2cccc(C(F)(F)F)c2)C(C)=NN1C(=O)Nc1cccc(C(F)(F)F)c1 | 10.7% | 9.5% | 0% | 10.7% | 73% | 16.1% | 8.9% | 0% | 39.3% | 28.6% |
| CCCCC1NN(C(C)=O)C(CCCC)NN1C(C)=O (stereo not given) | 13.1% | 0% | 0% | 4.8% | 37.9% | 0% | 6.4% | 0% | 47.6% | 0% |
